# Experimental data published in patent publication US20040166509A1, “Detecting hormonally active compounds” (priority 2002, published 2004).
# Experiments:
# [1] = tested on: LMB genes (ER alpha, ER gamma, StAR); parameters: species or system largemouth bass (LMB); conditions: Table II, test not stated
# [2] = tested on: hepatic mRNA of adult male SHMs; test: SHM cDNA macroarray (30 genes): hepatic gene expression profiles of exposed fish; type: in vivo, sheepshead minnow (SHM)
# hepatic RNA of LMB = test: LMB gene array (132 genes): hepatic gene expression after IP injection; type: in vivo, largemouth bass (LMB); conditions: male LMB liver, two-fold cutoff vs control; for LMB50-1 (clone 50-1) expression / LMB67-1 signal peptidase, endopeptidase expression: 48 h after single IP 4-NP 50 mg/kg
# [3] = tested on: estrogen receptors alpha, beta, and gamma, and Vtg 1 mRNA; test: Real-time PCR of ER and Vtg 1 mRNA in LMB liver; type: in vivo, largemouth bass (LMB); conditions: male LMB liver
# Source text: Experimental Design and Sample Collection: Adult male LMB were purchased from American Sports Fish Hatchery (Montgomery, Ala.) and maintained in fiberglass tanks as previously described (Larkin et al., Comp. Biochem. Physiol. B. Biochem. Mol. Biol. 133:543-557, 2002; Larkin et al., Marine Environ. Res. 54:395-399, 2002; and Larkin et al., Comparative Biochemistry and Physiology 133:543-557, 2002). Array technology as a tool to monitor exposure of fish to xenoestrogens. Marine Environ. Res., 2002; Bowman et al., Mol. Cell. Endocrinol. 196:67-77, 2002). Each fish was injected IP with either 50 mg/kg 4-NP (Fluka, St. Louis, Mo. # 74430), the combination of 50 mg/kg 4-NP and 1.0 mg/kg ICI 182,780 (Tocris Cookson), or vehicle, which consisted of ethanol and DMSO (Sigma, St. Louis, Mo. #5879). Each dose was dissolved in 1 ml of ethanol and then diluted to the appropriate concentration with DMSO. The fish were euthanized by submersion in a water bath containing 50-100 ppm […] 48 hours post injection and sacrificed by a sharp blow to the head followed by cervical transaction. The livers were excised and immediately flash frozen in liquid nitrogen. The frozen tissues were stored at −80° C. until RNA was isolated.
# RNA Isolation: Isolation of total RNA from liver tissue was performed with the RNA Stat-60 reagent (Tel-test). Briefly, 30 mg-50 mg of tissue stored in RNA later was homogenized in 0.9 mls STAT 60, choloroform was added, and the mixture was centrifuged at 12,000 g for 15 minutes at 4° C. The extraction process was repeated and the pooled RNA was added to 500 μl isopropanol and allowed to precipitate at −20° C. for at least one hour. Following centrifugation at 12,000 g for 50 minutes, the pellet was washed with 70% ethanol, air dried and resuspended in an appropriate volume (50 μl-120 μl of RNA secure. The samples were treated with RNA secure (Ambion, Austin Tex. #7010) to inactivate contaminating RNases. All isolated RNA was treated with DNase solution (Ambion, Austin, Tex. #1906) following the manufacture's protocol. For all RNA samples, the quantity and quality of total RNA was assessed by spectrophotometric readings at 260 nm and by electrophoresis through a 1% formaldahyde agarose gel stained with ethidium bromide.
# Real-Time PCR: Real time PCR was performed using reagents and a 5700 thermocycler purchased from Applied Biosystems (ABI, Foster City, Calif.). The nucleotide sequences of the primers for the ER subtypes and Vtg 1 are as follows: 5′, […] (SEQ ID NO:563) AND 5′[…] (SEQ ID NO:564). Probes and primers for the ER subtypes and Vtg 1 are described in Bowman et al., Ecotoxicology 8:399-416, 1999; and Bowman et al., Mol. Cell Endocrinol. 196:67-77, 2002. Each real time PCR reaction consisted of 0.01-0.2 μg of reverse transcribed total RNA from liver tissue, 1× universal Taqman master mix (ABI, Foster City, Calif.), and primers and probes in a 25 μl reaction. […] Statistical differences between the treatments were determined by one way analysis of variance with Dunnets post-hoc analysis.
# Measurement of ER and Vtg 1 mRNA by real-time PCR: Real-time PCR is a sensitive assay that can be used to quantitate expression levels of genes. Using this technology, assays were designed to quantitate the expression of 4 genes, estrogen receptors alpha, beta, and gamma, and Vtg 1 in LMB following exposure to 4-NP and 4-NP/ICI 182,780. […]
# [4] = 48 h after single IP dose: E2 2.5 mg/kg or 4-NP 50 mg/kg
# [5] = 48 h after single IP dose: E2 2.5 mg/kg or 4-NP 50 mg/kg, listed as NP
# [6] = 48 h after single IP dose: E2 2.5 mg/kg, 4-NP 50 mg/kg or p,p′-DDE 100 mg/kg
# [7] = 48 h after single IP dose: E2 2.5 mg/kg, 4-NP 50 mg/kg or p,p′-DDE 100 mg/kg, listed as NP
# [8] = 48 h after single IP injection, 4-NP 50 mg/kg alone or with ICI 182,780 1.0 mg/kg, not significant
compound,measurement,setting,value
"CCCCCCCCCc1ccc(O)cc1 [4-NP, para-nonylphenol]",LMB_ER-ALPHA ESTROGEN RECEPTOR ALPHA differentially expressed by,[1],up-reg E2;
same,Regulation,[2]; Estrogen receptor alpha (clone ID not given),"up-reg E2; EE2,"
same,Regulation,[2]; clone SHM2-1: vitellogenin alpha (2),"up-reg E2; EE2,"
same,Regulation,[2]; clone SHM11: Transferrin,"dn-reg E2; EE2,"
same,Regulation,[2]; clone SHM41: Ubiquitin-conjugating enzyme 9,up-reg NP
same,Regulation,[2]; clone SHM72-3: Coagulation Factor XI,"up-reg E2; EE2,"
same,Regulation,[2]; clone SHM76-2: Alphal-microglobulin/bikunin precursor (AMBP) protein,"d-reg E2; EE2,"
same,LMB50-1 (clone 50-1) expression,hepatic RNA of LMB,down-regulated
same,"LMB67-1 signal peptidase, endopeptidase expression",hepatic RNA of LMB,up-regulated
same,LMB50-1 (clone 50-1) expression,hepatic RNA of LMB; listed as NP,Down reg NP;
same,"LMB67-1 signal peptidase, endopeptidase expression",hepatic RNA of LMB; listed as NP,Up-reg NP
same,LMB5 vitellogenin-2A expression,hepatic RNA of LMB; [4],Up reg E2;
same,LMB92-1 (unidentified clone 92-1) expression,hepatic RNA of LMB; [4],up-regulated
same,LMB94-1 transferrin expression,hepatic RNA of LMB; [4],down-regulated
same,LMB112-1 cathepsin (Aspartic protease) expression,hepatic RNA of LMB; [4],up-regulated
same,LMB141 vitellogenin-3 expression,hepatic RNA of LMB; [4],"up reg E2; NP,"
same,four Vtg genes expression,hepatic RNA of LMB; [4],up-regulated (only genes that exhibit a two-fold or greater change in expression were considered to be differentially regulated)
same,LMB92-1 (unidentified clone 92-1) expression,hepatic RNA of LMB; [5],up-reg E2;
same,LMB94-1 transferrin expression,hepatic RNA of LMB; [5],Down-reg.
same,LMB83 vitellogenin-2 (Vtg 2) expression,hepatic RNA of LMB; [6],up-reg E2;
same,LMB87 vitellogenin-1 (Vtg 1) expression,hepatic RNA of LMB; [6],up-reg E2;
same,LMB97 choriogenin-3 expression,hepatic RNA of LMB; [6],up-regulated
same,LMB108-1 choriogenin-2 expression,hepatic RNA of LMB; [6],up-regulated
same,LMB97 choriogenin-3 expression,hepatic RNA of LMB; [7],Up-reg E2;
same,LMB108-1 choriogenin-2 expression,hepatic RNA of LMB; [7],Up-reg E2; NP;
same,Vtg 1 message levels increase over controls,"[3]; 48 h after single IP 4-NP 50 mg/kg, p<0.05",approximately 40 fold
same,ER α mRNA increase over controls,"[3]; 48 h after single IP injection, 4-NP 50 mg/kg alone (p<0.05) or with ICI 182,780 1.0 mg/kg (p<0.08)",80 fold
same,ER β mRNA decrease vs controls,[3]; [8],approximately 1.3 fold
same,ER γ mRNA decrease vs controls,[3]; [8],~2.6 fold
